Data reported in US9370186B2 (priority 2012, dated 2016).
In brackets after ≈: the same amount, converted by molar mass. Read-outs that look alike come from different tables or passages of the source.

Legend:
[1] = system: Phytophthora infestans; assay: whole plant or invertebrate; assay type: in vivo; conditions: for Practical dose for 70% efficacy: EC70, compound alone, preventive 24 h, potato leaf discs; for EC50: Phytophthora infestans, in Solanum tuberosum, foliar, 24 h, read-out: Practical dose for 50% efficacy
[2] = system: Phytophthora infestans; assay type: in vivo; conditions: tomatoes, 3 days after inoculation

In the case of CSC1=N[C@@](C)(c2ccccc2)C(=O)N1Nc1ccccc1 [fenamidone, (S)-3,5-dihydro-5-methyl-2-(methylthio)-5-phenyl-3-(phenylamino)-4H-imidazol-4-one], the “Practical dose for 70% efficacy” value [1] is reported as 9.764 mg a.i./L, the EC50 [1] is reported as 6.26 µg/mL (≈ 20.1 µM) and the “Efficacy (%) fenamidone alone” value ([1]; fenamidone 0.5 mg a.i./L) is reported as 0%. The “Efficacy (%) fenamidone alone” value ([1]; fenamidone 1 mg a.i./L) was 0%, the “Efficacy (%) fenamidone alone” value ([1]; fenamidone 2 mg a.i./L) was 5% and the “Efficacy (%) fenamidone alone” value ([1]; fenamidone 4 mg a.i./L) was 29%. The “Efficacy (%) fenamidone alone” value ([1]; fenamidone 8 mg a.i./L) was 83%, the “Efficacy (%) fenamidone alone” value ([1]; fenamidone 16 mg a.i./L) was 82% and the “Efficacy (%) fenamidone alone” value ([1]; fenamidone 50 mg a.i./L) was 91%. The “Efficacy in % found” value ([2]; 0.5 ppm a.i.) was 28%.

CCNc1nc(CC)c(C(=O)NC(C#N)c2cccs2)s1 (centres unmarked) [ethaboxam, N-(cyano-2-thienylmethyl)-4-ethyl-2-(ethylamino)-5-thiazolcarboxamide] was tested, and the “Practical dose for 70% efficacy” value [1] was 27.820 mg a.i./L, the EC50 [1] was 15.3 µg/mL (≈ 47.7 µM) and the “Efficacy (%) ethaboxam alone” value ([1]; ethaboxam 0.75 mg a.i./L) was 0%. For the same compound, the “Efficacy (%) ethaboxam alone” value ([1]; ethaboxam 1.5 mg a.i./L) was 0%, the “Efficacy (%) ethaboxam alone” value ([1]; ethaboxam 3 mg a.i./L) was 5% and the “Efficacy (%) ethaboxam alone” value ([1]; ethaboxam 6 mg a.i./L) was 13%. For the same compound, the “Efficacy (%) ethaboxam alone” value ([1]; ethaboxam 12 mg a.i./L) was 67%, the “Efficacy (%) ethaboxam alone” value ([1]; ethaboxam 24 mg a.i./L) was 73% and the “Efficacy (%) ethaboxam alone” value ([1]; ethaboxam 75 mg a.i./L) was 75%. The “Efficacy in % found” value ([2]; 5 ppm a.i.) was 40%.
